The source of these data is article PMC9329436, “Optimization of the 4-anilinoquin(az)oline scaffold as epidermal growth factor receptor (EGFR) inhibitors for chordoma utilizing a toxicology profiling assay platform” (Scientific Reports, 2022).

Format in all cases: biochemical
Test [1] deals with T1, 320 wild-type protein kinases (Homo sapiens, UniProt O15264).
T1 sequence (O15264 1-365): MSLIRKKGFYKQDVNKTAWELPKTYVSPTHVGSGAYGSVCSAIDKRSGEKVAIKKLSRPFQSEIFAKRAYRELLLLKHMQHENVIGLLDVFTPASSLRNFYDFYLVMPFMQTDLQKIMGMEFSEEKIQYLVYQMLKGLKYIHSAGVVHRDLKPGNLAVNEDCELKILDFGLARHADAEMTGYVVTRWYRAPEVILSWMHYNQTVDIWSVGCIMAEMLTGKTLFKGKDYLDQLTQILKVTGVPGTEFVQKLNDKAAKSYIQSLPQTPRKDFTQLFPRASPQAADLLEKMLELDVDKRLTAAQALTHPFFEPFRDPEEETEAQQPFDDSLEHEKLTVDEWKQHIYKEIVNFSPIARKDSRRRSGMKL
Particulars: p38-delta, singlicate. The source says: (§1) Table S4. Profiling of two compounds at two concentrations against 320 wild-type protein kinases; singlicate measurement; Residual activities (% of control).

For test [2], the target named is 320 wild-type protein kinases (Homo sapiens, UniProt P23458). Conditions: JAK1 aa583-1154 wt, singlicate.
320 wild-type protein kinases (Homo sapiens, UniProt P23458), sequence (P23458 whole entry, the tested form may be a part): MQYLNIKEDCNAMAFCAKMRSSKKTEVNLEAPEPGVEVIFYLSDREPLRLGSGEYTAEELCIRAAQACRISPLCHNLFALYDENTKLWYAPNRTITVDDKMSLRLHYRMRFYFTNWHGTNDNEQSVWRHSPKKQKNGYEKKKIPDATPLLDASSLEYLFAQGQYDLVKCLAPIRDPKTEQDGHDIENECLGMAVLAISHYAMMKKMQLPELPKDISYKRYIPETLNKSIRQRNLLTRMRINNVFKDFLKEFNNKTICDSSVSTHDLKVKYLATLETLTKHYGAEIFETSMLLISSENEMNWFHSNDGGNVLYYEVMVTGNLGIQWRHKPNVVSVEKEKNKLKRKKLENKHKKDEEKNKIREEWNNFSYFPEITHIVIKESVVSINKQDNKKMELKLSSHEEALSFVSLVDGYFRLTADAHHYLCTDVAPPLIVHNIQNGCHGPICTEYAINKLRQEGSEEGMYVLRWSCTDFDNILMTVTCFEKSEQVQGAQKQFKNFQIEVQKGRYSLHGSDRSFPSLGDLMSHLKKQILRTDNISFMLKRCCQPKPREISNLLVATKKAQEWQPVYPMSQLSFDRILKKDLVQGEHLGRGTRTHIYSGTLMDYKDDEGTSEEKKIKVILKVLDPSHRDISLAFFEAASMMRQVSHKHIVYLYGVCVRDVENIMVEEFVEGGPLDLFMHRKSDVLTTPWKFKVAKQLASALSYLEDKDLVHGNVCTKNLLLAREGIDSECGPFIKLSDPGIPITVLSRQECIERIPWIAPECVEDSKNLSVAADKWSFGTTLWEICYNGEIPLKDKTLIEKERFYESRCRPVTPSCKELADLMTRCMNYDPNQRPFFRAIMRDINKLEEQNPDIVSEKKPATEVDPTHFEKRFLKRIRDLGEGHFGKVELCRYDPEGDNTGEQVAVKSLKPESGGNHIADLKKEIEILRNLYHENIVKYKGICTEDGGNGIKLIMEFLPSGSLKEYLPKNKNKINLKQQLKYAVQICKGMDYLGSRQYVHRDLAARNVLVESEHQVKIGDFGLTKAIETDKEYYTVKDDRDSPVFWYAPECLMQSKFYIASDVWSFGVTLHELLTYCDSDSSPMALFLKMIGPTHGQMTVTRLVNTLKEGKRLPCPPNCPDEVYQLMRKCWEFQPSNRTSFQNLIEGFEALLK
From the text: as §1

Test [3] concerns the target 320 wild-type protein kinases (Homo sapiens, UniProt P42685). Conditions: FRK, singlicate.
From the text: as §1

In test [4] the target is T2, 320 wild-type protein kinases (Homo sapiens, UniProt P54753).
T2 sequence (P54753 34-998): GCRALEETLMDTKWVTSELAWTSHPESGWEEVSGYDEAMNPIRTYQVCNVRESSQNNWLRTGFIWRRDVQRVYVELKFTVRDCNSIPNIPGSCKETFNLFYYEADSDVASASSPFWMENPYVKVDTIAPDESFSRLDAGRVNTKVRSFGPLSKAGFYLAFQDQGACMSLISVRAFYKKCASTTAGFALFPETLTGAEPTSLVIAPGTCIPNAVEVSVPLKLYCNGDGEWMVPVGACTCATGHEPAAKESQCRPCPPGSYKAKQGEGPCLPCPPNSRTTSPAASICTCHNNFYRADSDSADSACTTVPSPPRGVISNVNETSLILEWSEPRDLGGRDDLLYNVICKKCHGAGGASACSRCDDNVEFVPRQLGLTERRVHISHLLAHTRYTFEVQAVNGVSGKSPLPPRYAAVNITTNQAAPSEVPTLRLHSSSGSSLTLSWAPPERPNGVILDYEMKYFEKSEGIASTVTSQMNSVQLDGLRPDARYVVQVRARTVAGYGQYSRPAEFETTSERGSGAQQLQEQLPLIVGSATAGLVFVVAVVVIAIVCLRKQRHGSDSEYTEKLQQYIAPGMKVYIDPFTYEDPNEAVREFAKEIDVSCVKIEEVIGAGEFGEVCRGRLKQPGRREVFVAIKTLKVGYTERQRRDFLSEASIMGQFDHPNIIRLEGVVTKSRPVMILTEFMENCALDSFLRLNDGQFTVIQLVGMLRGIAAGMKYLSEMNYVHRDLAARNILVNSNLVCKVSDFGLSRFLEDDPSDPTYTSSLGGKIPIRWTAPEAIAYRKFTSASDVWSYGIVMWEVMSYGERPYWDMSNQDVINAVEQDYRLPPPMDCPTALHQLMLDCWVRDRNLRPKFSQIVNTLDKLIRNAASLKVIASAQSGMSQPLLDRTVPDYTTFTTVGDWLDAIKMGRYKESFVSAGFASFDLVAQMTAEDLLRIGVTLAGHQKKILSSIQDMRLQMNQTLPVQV
Particulars: singlicate.
From the text: as §1

The target in test [5] is T3, 320 wild-type protein kinases (Homo sapiens, UniProt Q04771).
T3 sequence (Q04771 21-509): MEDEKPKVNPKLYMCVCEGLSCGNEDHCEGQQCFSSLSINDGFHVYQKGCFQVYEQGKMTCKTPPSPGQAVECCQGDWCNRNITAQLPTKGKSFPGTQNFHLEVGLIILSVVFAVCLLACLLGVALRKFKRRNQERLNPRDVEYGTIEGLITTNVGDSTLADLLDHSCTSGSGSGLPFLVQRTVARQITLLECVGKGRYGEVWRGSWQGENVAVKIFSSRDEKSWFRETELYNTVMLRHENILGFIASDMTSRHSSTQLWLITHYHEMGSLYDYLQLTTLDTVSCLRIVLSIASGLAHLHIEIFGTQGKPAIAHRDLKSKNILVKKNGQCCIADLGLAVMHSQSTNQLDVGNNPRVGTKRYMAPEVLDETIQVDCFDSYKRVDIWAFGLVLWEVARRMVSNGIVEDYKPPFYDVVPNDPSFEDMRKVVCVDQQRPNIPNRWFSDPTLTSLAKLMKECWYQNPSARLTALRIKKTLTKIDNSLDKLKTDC
Conditions: singlicate.
From the text: as §1

For test [6], the target named is T4, 320 wild-type protein kinases (Homo sapiens, UniProt Q9UBE8).
T4 sequence (Q9UBE8 1-527): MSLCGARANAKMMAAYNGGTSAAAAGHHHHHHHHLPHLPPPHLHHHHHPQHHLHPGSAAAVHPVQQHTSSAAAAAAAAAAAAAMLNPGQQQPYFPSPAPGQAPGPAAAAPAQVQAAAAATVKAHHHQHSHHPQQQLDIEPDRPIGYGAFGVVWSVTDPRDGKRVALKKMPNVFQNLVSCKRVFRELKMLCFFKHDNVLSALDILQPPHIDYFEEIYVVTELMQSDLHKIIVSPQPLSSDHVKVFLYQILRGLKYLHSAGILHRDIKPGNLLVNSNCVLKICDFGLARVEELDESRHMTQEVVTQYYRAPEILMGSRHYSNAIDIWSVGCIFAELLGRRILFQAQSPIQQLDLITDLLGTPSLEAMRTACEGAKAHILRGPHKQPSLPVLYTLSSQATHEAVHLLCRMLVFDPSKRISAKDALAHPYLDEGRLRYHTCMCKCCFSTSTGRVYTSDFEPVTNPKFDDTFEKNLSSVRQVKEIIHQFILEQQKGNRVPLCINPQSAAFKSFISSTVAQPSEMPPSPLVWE
Conditions: NLK, singlicate.
From the text: as §1

Structures are written as SMILES. Read-outs that look alike come from different tables or passages of the source.

320 wild-type protein kinases (Homo sapiens, UniProt P42685), sequence (P42685 whole entry): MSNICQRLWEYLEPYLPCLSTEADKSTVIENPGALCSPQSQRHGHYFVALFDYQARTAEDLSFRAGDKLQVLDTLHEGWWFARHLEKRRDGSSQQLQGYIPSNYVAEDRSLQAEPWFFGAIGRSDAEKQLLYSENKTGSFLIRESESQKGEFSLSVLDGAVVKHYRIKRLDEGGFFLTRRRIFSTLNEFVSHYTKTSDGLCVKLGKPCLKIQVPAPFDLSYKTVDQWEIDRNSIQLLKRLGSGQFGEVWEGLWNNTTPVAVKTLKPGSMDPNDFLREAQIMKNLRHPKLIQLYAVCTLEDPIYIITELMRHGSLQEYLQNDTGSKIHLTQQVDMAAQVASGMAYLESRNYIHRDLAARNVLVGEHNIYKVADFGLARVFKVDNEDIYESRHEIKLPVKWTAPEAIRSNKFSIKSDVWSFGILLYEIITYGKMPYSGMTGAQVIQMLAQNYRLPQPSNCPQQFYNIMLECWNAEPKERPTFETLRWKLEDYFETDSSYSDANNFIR

For `C#Cc1cc(Nc2ncnc3cc(OC)c(OC)cc23)ccc1Cl` [Compound 45], the Residual activity was 94 % of control in test [1] (1.0E-06 M); 111 % of control in test [1] (1.0E-07 M); 102 % of control in test [2] (1.0E-06 M); 111 % of control in test [2] (1.0E-07 M); 74 % of control in test [3] (1.0E-06 M); 96 % of control in test [3] (1.0E-07 M). The Residual activity in test [4] (EPHB3, 1.0E-06 M) was 113 % of control; in test [4] (EPHB3, 1.0E-07 M), 99 % of control; in test [5] (ACV-R1, 1.0E-06 M) it was 93 % of control; in test [5] (ACV-R1, 1.0E-07 M) it was 98 % of control; in test [6] (1.0E-06 M) it was 31 % of control; in test [6] (1.0E-07 M), 83 % of control.

Turning to `C#Cc1cc(Nc2ncnc3cc(I)ccc23)ccc1Cl` [Compound 41], the Residual activity is on record as 94 % of control in test [1] (1.0E-06 M); 112 % of control in test [1] (1.0E-07 M); 90 % of control in test [2] (1.0E-06 M); 98 % of control in test [2] (1.0E-07 M); 106 % of control in test [3] (1.0E-06 M); 93 % of control in test [3] (1.0E-07 M). In addition, the Residual activity in test [4] (EPHB3, 1.0E-06 M) is listed as 100 % of control; in test [4] (EPHB3, 1.0E-07 M), 110 % of control; in test [5] (ACV-R1, 1.0E-06 M), 86 % of control; in test [5] (ACV-R1, 1.0E-07 M) it was 91 % of control; in test [6] (1.0E-06 M) it was 63 % of control; in test [6] (1.0E-07 M), 76 % of control.
